Test systems include OVCAR-3; PC-3; UACC-62; SR; SW-620; OVCAR-8; ACHN; K562; 786-0; Hs-578T; HOP-62; SF-539; MCF7; MOLT-4; MDA-N; M14; HCC 2998; HL-60; SK-MEL-2; NCI/ADR-RES.
What all share (test): growth of human tumour cells (NCI), 48 h

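Exposure lasted 48 hours, with cells grown in 96-well plates and compounds tested at five concentrations. Abbreviation: GI50, concentration required for 50% inhibition of growth.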 Calls of active or inactive are those of the source. Cut-off read from the data, not from the text of the source: active = GI50 up to about 1.1 µM and inactive = higher.

Regarding `COc1ccc(C(=O)/C=C/c2cc(O)c(O)cc2F)c(OC)c1`, the GI50 in the experiment on OVCAR-3 is 0.327 µM (active); in the experiment on PC-3, 5.78 µM (inactive); in the experiment on UACC-62 it was 10.9 µM (inactive); in the experiment with SR it was 0.564 µM (active); in the experiment on SW-620, 6.82 µM (inactive); with OVCAR-8, 14.5 µM (inactive). The GI50 is 7.08 µM (inactive) with ACHN; 1.16 µM (inactive) in the experiment with K562; 5.45 µM (inactive) in the experiment with 786-0; 4.8 µM (inactive) with Hs-578T; 6.58 µM (inactive) in the experiment with HOP-62; 6.04 µM (inactive) with SF-539. For the same compound, the GI50 in the experiment on MCF7 is 0.395 µM (active); in the experiment on MOLT-4, 3.71 µM (inactive); in the experiment on MDA-N, 2.54 µM (inactive); with M14 it was 10.2 µM (inactive); in the experiment on HCC 2998 it was 2.27 µM (inactive); in the experiment with HL-60, 1.15 µM (inactive). Further, the GI50 is 4.91 µM (inactive) with SK-MEL-2 and 7.85 µM (inactive) with NCI/ADR-RES.
On to `CC(=O)OCC1OC(n2c(N)c(C#N)c(-c3cccc(Cl)c3)c(C#N)c2=S)C(OC(C)=O)C(OC(C)=O)C1OC(C)=O` (stereo not given), for which the GI50 was 14.8 µM (inactive) in the experiment on OVCAR-3; 24.9 µM (inactive) with PC-3; 26.9 µM (inactive) in the experiment with UACC-62; 14.7 µM (inactive) with SR; 32.7 µM (inactive) with SW-620; 14.9 µM (inactive) in the experiment on OVCAR-8. Also, the GI50 in the experiment on ACHN was 29.1 µM (inactive); in the experiment with K562, 28.2 µM (inactive); in the experiment on 786-0, 22.2 µM (inactive); with Hs-578T it was 20 µM (inactive); in the experiment on HOP-62, 23.3 µM (inactive); in the experiment on SF-539, 12.6 µM (inactive). Moreover, the GI50 in the experiment with MCF7 was 21.5 µM (inactive); with MOLT-4, 11.9 µM (inactive); with MDA-N, 19.1 µM (inactive); with M14, 22.4 µM (inactive); in the experiment with HCC 2998, 10.8 µM (inactive); in the experiment with HL-60 it was 17.9 µM (inactive). For the same compound, the results for the GI50 in the experiment with SK-MEL-2 and with NCI/ADR-RES were 19 µM (inactive) and 28.4 µM (inactive), respectively.
For `Cc1cc([C@H](C#N)c2nc3ccccc3s2)nc(Cl)n1`, the GI50 with OVCAR-3 was 4.84 µM (inactive); in the experiment on PC-3, 3.54 µM (inactive); in the experiment with UACC-62, 3.65 µM (inactive); in the experiment with SR, 1.31 µM (inactive); with SW-620, 3.04 µM (inactive); with OVCAR-8 it was 3.18 µM (inactive). Also, the GI50 was 9.25 µM (inactive) in the experiment with ACHN; 2.75 µM (inactive) in the experiment on K562; 4.76 µM (inactive) in the experiment on 786-0; 4.71 µM (inactive) in the experiment on Hs-578T; 4.66 µM (inactive) in the experiment on HOP-62; 4.92 µM (inactive) in the experiment on SF-539. Also, the GI50 with MCF7 was 4.41 µM (inactive); with MOLT-4, 5.5 µM (inactive); with MDA-N, 3.55 µM (inactive); with M14, 5.57 µM (inactive); in the experiment on HCC 2998, 4.86 µM (inactive); with HL-60, 3.67 µM (inactive). The GI50 with SK-MEL-2 was 4.72 µM (inactive); in the experiment with NCI/ADR-RES it was 3.08 µM (inactive).

The values above are taken from ChEMBL document CHEMBL1201862, “PubChem BioAssay data set” (2004).
